In US3991202A, “Imidazolium salts” (Janssen Pharmaceutica N.V., priority 1974, dated 1976):

Columns and labels:
Assay in all cases: Antibacterial growth inhibition in phenol red dextrose broth
Format in all cases: cell-based
[1] = system: Staphylococcus hemolyticus; conditions: 168 h, Staph., tested at 100, 10, 1 μg/ml, read-out: Concentration in μ g for 100% Growth Inhibition
Protocol: (§1) The tests on bacteria were performed on cultures on phenol red dextrose broth medium (Difco). By using decimal dilution techniques described for the tests for antifungal activity, test media containing 100 μg, 10 μg and 1 μg of imidazolium salt per milliliter of medium were obtained. The inoculum consisted of a platinum loop (5 mm diameter) from a 24 hour broth culture. Forty-eight hours after incubation, subcultures were made from each culture for the determination of antibacterial activity of the imidazolium salts. After seven days of incubation, observations were made to determine the presence or absence of bacterial growth.

Streptococcus pyogenes = conditions: 168 h, Strep., tested at 100, 10, 1 μg/ml, read-out: Concentration in μ g for 100% Growth Inhibition
Protocol: as §1

[2] = system: Salmonella pullorum gallinarum; conditions: Salmonella enterica, 168 h; Sp. G.; tested at 100, 10, 1 μg/ml; read-out: Concentration in μ g for 100% Growth Inhibition
Protocol: as §1

Erysipelothrix insidiosa = conditions: Erysipelothrix rhusiopathiae, 168 h; E. ins.; tested at 100, 10, 1 μg/ml; read-out: Concentration in μ g for 100% Growth Inhibition
Protocol: as §1

Pseudomonas aeruginosa = conditions: 168 h, Ps. aer., tested at 100, 10, 1 μg/ml, read-out: Concentration in μ g for 100% Growth Inhibition
Protocol: as §1

Escherichia coli = conditions: 168 h, E. coli, tested at 100, 10, 1 μg/ml, read-out: Concentration in μ g for 100% Growth Inhibition
Protocol: as §1

MIC (Streptococcus pyogenes) | MIC [2] | MIC (Erysipelothrix insidiosa) | MIC (Pseudomonas aeruginosa) | MIC (Escherichia coli) | SMILES | MIC [1]
1 µg/mL | 10 µg/mL | 1 µg/mL | 100 µg/mL | 100 µg/mL | COc1ccc(CC[n+]2ccn(CC(OCc3ccc(Cl)cc3Cl)c3ccc(Cl)cc3Cl)c2)cc1.[Cl-] (stereo not drawn) [(CH2)2C6H4pOCH3, 1-[2,4-dichloro-β-(2,4-dichlorobenzyloxy)phenethyl]-3-(p-methoxyphenethyl)imidazolium chloride] | 1 µg/mL
1 µg/mL | 10 µg/mL | 10 µg/mL | 100 µg/mL | 100 µg/mL | Fc1ccc(C[n+]2ccn(CC(OCc3ccc(Cl)cc3Cl)c3ccc(Cl)cc3Cl)c2)cc1.[I-] (stereo not drawn) [CH2C6H4pF, 1-[2,4-Dichloro-β-(2,4-dichlorobenzyloxy)phenethyl]-3-(p-fluorobenzyl)-imidazolium iodide] | 1 µg/mL
1 µg/mL | 10 µg/mL | 1 µg/mL | 100 µg/mL | 10 µg/mL | Fc1ccc(C(c2ccccc2)[n+]2ccn(CC(OCc3ccc(Cl)cc3Cl)c3ccc(Cl)cc3Cl)c2)cc1 (stereo not drawn) | 1 µg/mL
1 µg/mL | 10 µg/mL | 1 µg/mL | 100 µg/mL | 10 µg/mL | COc1ccccc1NC(=O)C[n+]1ccn(CC(OCc2ccc(Cl)cc2Cl)c2ccc(Cl)cc2Cl)c1 (stereo not drawn) [CH2CONHC6H4oOCH3, 1-[2,4-dichloro-β-(2,4-dichlorobenzyloxy)phenethyl]-3-[N-(o-methoxyphenyl)carbamoylmethyl]imidazolium chloride hydrate] | 1 µg/mL
1 µg/mL | 10 µg/mL | 1 µg/mL | 100 µg/mL | 10 µg/mL | COc1ccc(NC(=O)C[n+]2ccn(CC(OCc3ccc(Cl)cc3Cl)c3ccc(Cl)cc3Cl)c2)cc1 (stereo not drawn) [CH2CONHC6H4pOCH3] | 1 µg/mL
1 µg/mL | 10 µg/mL | 1 µg/mL | 100 µg/mL | 10 µg/mL | O.OC(C[n+]1ccn(CC(OCc2ccc(Cl)cc2)c2ccc(Cl)cc2Cl)c1)c1ccc(Cl)cc1.[Br-] (stereo not drawn) [2,4(Cl)2C6H3/CH2C6H4pCl/CH2CHOHC6H4pCl, 1-[β-(p-Chlorobenzyloxy)-2,4-dichlorophenethyl]-3-(p-chloro-β-hydroxyphenethyl)imidazolium bromide hydrate] | 1 µg/mL
1 µg/mL | 10 µg/mL | 1 µg/mL | 100 µg/mL | 10 µg/mL | O=C(C[n+]1ccn(CC(OCc2c(Cl)cccc2Cl)c2ccc(Cl)cc2Cl)c1)Nc1ccc(F)cc1 (stereo not drawn) [1-[2,4-dichloro-β-(2,6-dichlorobenzyloxy)phenethyl]-3-[N-(p-fluorophenyl)carbamoylmethyl]imidazolium chloride] | 1 µg/mL

The next lines start with the molecule.

SMILES | MIC (Streptococcus pyogenes) | MIC [2] | MIC (Erysipelothrix insidiosa) | MIC (Pseudomonas aeruginosa) | MIC (Escherichia coli) | MIC [1]
Clc1ccc(COC(Cn2cc[n+](CCc3ccccc3)c2)c2ccc(Cl)cc2Cl)c(Cl)c1.[Br-] (stereo not drawn) [(CH2)2C6H5, 1-[2,4-Dichloro-β-(2,4-dichlorobenzyloxy)phenethyl]-3-phenethylimidazolium bromide] | 1 µg/mL | 10 µg/mL | 1 µg/mL | 100 µg/mL | 10 µg/mL | 1 µg/mL
Cc1ccccc1NC(=O)C[n+]1ccn(CC(OCc2ccc(Cl)cc2Cl)c2ccc(Cl)cc2)c1 (stereo not drawn) [C6H4pCl/CH2C6H32,4(Cl)2/CH2CONHC6H4oCH3, 1-[p-Chloro-β-(2,4-dichlorobenzyloxy)phenethyl]-3-(N-o-tolylcarbamoylmethyl)imidazolium chloride hydrate] | 1 µg/mL | 10 µg/mL | 1 µg/mL | 100 µg/mL | 100 µg/mL | 100 µg/mL
Cc1ccc(C[n+]2ccn(CC(OCc3ccc(Cl)cc3Cl)c3ccc(Cl)cc3Cl)c2)cc1.[Br-] (stereo not drawn) [CH2C6H4pCH3, 1-[2,4-Dichloro-β-(2,4-dichlorobenzyloxy)phenethyl]-3-(p-methylbenzyl)imidazolium bromide] | 1 µg/mL | 100 µg/mL | 10 µg/mL | 100 µg/mL | 10 µg/mL | 1 µg/mL
O=C(C[n+]1ccn(CC(OCc2ccc(Cl)cc2)c2ccc(Cl)cc2Cl)c1)c1ccc(F)cc1.[Cl-] (stereo not drawn) [2,4(Cl)2C6H3/CH2C6H4pCl/CH2COC6H4pF, 1-[2,4-Dichloro-β-(p-chlorobenzyloxy)phenethyl]-3-(p-fluorophenacyl)imidazolium chloride] | 1 µg/mL | 10 µg/mL | 1 µg/mL | 100 µg/mL | 100 µg/mL | 1 µg/mL
O=C(CCn1cc[n+](CC(OCc2ccc(Cl)cc2Cl)c2ccc(Cl)cc2Cl)c1)Nc1ccccc1Cl.[Cl-] (stereo not drawn) [(CH2)2CONHC6H4oCl, 1-{2-[N-(o-Chlorophenyl)carbamoyl]ethyl}-3-[2,4-dichloro-β-(2,4-dichlorobenzyloxy)phenethyl]imidazolium chloride] | 1 µg/mL | 10 µg/mL | 1 µg/mL | 100 µg/mL | 10 µg/mL | 1 µg/mL
Cc1cc(Cl)ccc1NC(=O)CCn1cc[n+](CC(OCc2ccc(Cl)cc2Cl)c2ccc(Cl)cc2Cl)c1.[Cl-] (stereo not drawn) [(CH2)2CONHC6H32,4(CH3,Cl), 1-{2-[N-(4-chloro-o-tolyl)carbamoyl]ethyl}-3-[2,4-dichloro-β-(2,4-dichlorobenzyloxy)phenethyl]imidazolium chloride] | 1 µg/mL | 10 µg/mL | 1 µg/mL | 100 µg/mL | 100 µg/mL | 1 µg/mL
Clc1ccc(COC(C[n+]2ccn(CCNc3ccccc3)c2)c2ccc(Cl)cc2Cl)c(Cl)c1.[Br-] (stereo not drawn) [(CH2)2NHC6H5, 1-(2-Anilinoethyl)-3-[2,4-dichloro-β-(2,4-dichlorobenzyloxy)phenethyl]imidazolium bromide] | 1 µg/mL | 10 µg/mL | 1 µg/mL | 100 µg/mL | 10 µg/mL | 1 µg/mL
O=C(C[n+]1ccn(CC(OCc2ccc(Cl)cc2Cl)c2ccc(Cl)cc2Cl)c1)Nc1ccc(Cl)cc1 (stereo not drawn) [CH2CONHC6H4p(Cl), 1-[N-(p-chlorophenyl)carbamoylmethyl]-3-[2,4-dichloro-β-(2,4-dichlorobenzyloxy)phenethyl]imidazolium chloride hydrate] | 1 µg/mL | 100 µg/mL | 1 µg/mL | 100 µg/mL | 10 µg/mL | 10 µg/mL
Fc1ccc(CC[n+]2ccn(CC(OCc3ccc(Cl)cc3Cl)c3ccc(Cl)cc3Cl)c2)cc1.O.[Br-] (stereo not drawn) [(CH2)2C6H4pF, 1-[2,4-Dichloro-β-(2,4-dichlorobenzyloxy)phenethyl]-3-(p-fluorophenethyl)imidazolium bromide hydrate] | 1 µg/mL | 10 µg/mL | 10 µg/mL | 100 µg/mL | 100 µg/mL | 1 µg/mL
Fc1ccc(C(c2ccc(Cl)cc2)[n+]2ccn(CC(OCc3ccc(Cl)cc3Cl)c3ccc(Cl)cc3Cl)c2)cc1 (stereo not drawn) [drawing 69] | 1 µg/mL | 100 µg/mL | 1 µg/mL | 100 µg/mL | 100 µg/mL | 1 µg/mL
Clc1ccc(Cn2cc[n+](CC(OCc3c(Cl)cccc3Cl)c3ccc(Cl)cc3Cl)c2)c(Cl)c1.[Cl-] (stereo not drawn) [1-(2,4-Dichlorobenzyl)-3-[2,4-dichloro-β-(2,6-dichlorobenzyloxy)phenethyl]imidazolium chloride] | 1 µg/mL | 10 µg/mL | 1 µg/mL | 100 µg/mL | 10 µg/mL | 1 µg/mL
Clc1ccc(COC(C[n+]2ccn(CCNc3c(Cl)cccc3Cl)c2)c2ccc(Cl)cc2Cl)c(Cl)c1.O.[Br-] (stereo not drawn) [(CH2)2NHC6H32,6(Cl)2, 1-[2-(2,6-Dichloroanilino)ethyl]-3-[2,4-dichloro-β-(2,4-dichlorobenzyloxy)phenethyl]imidazolium bromide hydrate] | 1 µg/mL | 10 µg/mL | 1 µg/mL | 100 µg/mL | 10 µg/mL | 1 µg/mL
CCCCOC(Cn1cc[n+](CC(=O)Nc2ccc(F)cc2)c1)c1ccccc1Cl (stereo not drawn) [C6H4oCl/nC4H9/CH2CONHC6H4pF] | 10 µg/mL | 100 µg/mL | 10 µg/mL | 100 µg/mL | 100 µg/mL | 100 µg/mL
Cc1ccccc1NC(=O)C[n+]1ccn(CC(OCc2ccc(Cl)cc2)c2ccc(Cl)cc2)c1 (stereo not drawn) [C6H4pCl/CH2C6H4pCl/CH2CONHC6H4oCH3, 1-[p-Chloro-β-(p-chlorobenzyloxy)phenethyl]-3-(N-o-toylcarbamoylmethyl)imidazolium chloride] | 10 µg/mL | 100 µg/mL | 10 µg/mL | 100 µg/mL | 100 µg/mL | 10 µg/mL
